This is an account of results in article PMC10122656, “Siglec-6 mediates the uptake of extracellular vesicles through a noncanonical glycolipid binding pocket” (Nature Communications, 2023).

Several values for one entry are separate records, joined by “and”; a condition that tells them apart may be missing. Identical values can stand only once.

Assay in all cases: Cell assay (liposome/EV binding, flow cytometry)
What all share (type): cell-based
On the technique in general: A flow cytometer gives signals particle by particle.

One assay concerns the target T1, WT Siglec-6 CHO cells (Homo sapiens, UniProt O43699).
T1 construct: expressed in transfected cells
The note with it: for log10(MFI AF647) of GLL relative to log10(MFI AF647) of the same GLL against UT CHO cells (Fig. 2a): Sig-6 WT, 3 mol% ganglioside liposomes. Put shortly: (§1)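 Binding of AF647-labelled, Siglec ligand-bearing liposomes (130 ± 35 nm) or EVs was measured on transfected CHO cells. Exposure was 50 µM or 50 µg/mL for 30 min at 37 °C; Siglec-positive cells were gated for analysis.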

The target of the next assay is T2, R122A Siglec-6 CHO cells (Homo sapiens, UniProt O43699, R122A).
T2 construct: expressed in transfected cells
T2 sequence (O43699 27-453 R122A): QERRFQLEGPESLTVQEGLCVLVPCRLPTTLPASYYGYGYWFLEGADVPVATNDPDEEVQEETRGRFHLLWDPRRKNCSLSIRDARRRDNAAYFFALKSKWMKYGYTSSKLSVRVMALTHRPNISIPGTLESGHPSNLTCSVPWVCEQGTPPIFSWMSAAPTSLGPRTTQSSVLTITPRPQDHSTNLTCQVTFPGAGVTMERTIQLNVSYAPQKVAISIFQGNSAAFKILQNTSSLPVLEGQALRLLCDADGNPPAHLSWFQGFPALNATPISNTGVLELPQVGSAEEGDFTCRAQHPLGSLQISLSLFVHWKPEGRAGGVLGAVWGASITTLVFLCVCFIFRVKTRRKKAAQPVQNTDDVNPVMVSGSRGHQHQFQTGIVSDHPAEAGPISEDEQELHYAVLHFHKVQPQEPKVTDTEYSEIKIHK
The note with it: replicates; for log10(MFI AF647) of GLL relative to log10(MFI AF647) of the same GLL against UT CHO cells (Fig. 2a): Sig-6 R122A, 3 mol% ganglioside liposomes. An outline of the steps:
as §1

Another assay addresses T3, Siglec-10 WT CHO cells (Homo sapiens, UniProt Q96LC7).
T3 construct: expressed in transfected cells
T3 sequence (Q96LC7 17-697): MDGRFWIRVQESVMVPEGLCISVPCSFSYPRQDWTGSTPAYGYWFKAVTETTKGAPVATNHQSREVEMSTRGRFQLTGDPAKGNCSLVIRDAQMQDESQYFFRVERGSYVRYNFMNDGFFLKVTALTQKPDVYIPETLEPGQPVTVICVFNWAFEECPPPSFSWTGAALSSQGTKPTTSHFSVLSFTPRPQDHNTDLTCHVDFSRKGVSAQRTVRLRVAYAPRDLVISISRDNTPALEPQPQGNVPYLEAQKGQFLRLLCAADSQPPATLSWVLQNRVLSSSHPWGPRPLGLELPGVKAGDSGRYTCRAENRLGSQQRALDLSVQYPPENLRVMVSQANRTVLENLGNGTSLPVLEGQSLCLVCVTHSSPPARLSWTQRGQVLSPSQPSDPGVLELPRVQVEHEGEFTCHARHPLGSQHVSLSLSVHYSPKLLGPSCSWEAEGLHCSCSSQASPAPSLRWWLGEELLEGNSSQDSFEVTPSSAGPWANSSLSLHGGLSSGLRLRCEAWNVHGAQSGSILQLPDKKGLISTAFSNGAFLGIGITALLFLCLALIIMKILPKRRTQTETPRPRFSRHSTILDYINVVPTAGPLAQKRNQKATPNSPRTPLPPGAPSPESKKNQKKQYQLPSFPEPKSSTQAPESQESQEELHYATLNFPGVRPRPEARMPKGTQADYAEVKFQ
The following applies: for log10(MFI AF647) of GLL relative to log10(MFI AF647) of the same GLL against UT CHO cells (Fig. 2a): Sig-10 WT, 3 mol% ganglioside liposomes, replicates. An outline of the steps: as §1

For assay [1], the target named is T4, Siglec-15 R143A CHO cells (Homo sapiens, UniProt Q6ZMC9, K274L/R143A).
T4 construct: expressed in transfected cells
T4 sequence (Q6ZMC9 20-328 R143A/K274L): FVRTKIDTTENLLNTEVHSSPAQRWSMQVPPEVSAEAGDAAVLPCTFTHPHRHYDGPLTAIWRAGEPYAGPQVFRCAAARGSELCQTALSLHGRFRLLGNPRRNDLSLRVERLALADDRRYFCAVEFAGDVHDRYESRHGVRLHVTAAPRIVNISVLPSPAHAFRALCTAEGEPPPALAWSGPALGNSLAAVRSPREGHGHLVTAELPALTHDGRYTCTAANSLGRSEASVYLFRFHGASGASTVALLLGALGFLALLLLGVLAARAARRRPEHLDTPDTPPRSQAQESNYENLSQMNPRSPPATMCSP
The following applies: Sig-15 R143A; 3 mol% ganglioside liposomes; replicates. Put shortly: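 CHO cells expressing the indicated Siglec (wild-type or R-to-A mutant) were incubated 30 min at 37 °C with 50 µM fluorescent DSPC/cholesterol/PEG-DSPE liposomes (~130 nm, Siglec ligand-bearing) or 50 µg/mL EVs in DMEM F12 5% FBS. After washing and anti-Siglec staining on ice, binding was measured by flow cytometry on Siglec-positive gated cells.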
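Wherever liposome binding, fluorescence signal (replicates) is given: AF647 fluorescence intensity from 0.1 mol% AF647–PEG45–DSPE in liposomes.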

T1 sequence (O43699 27-453): as the sequence (O43699 27-453 R122A) above, with A96R counted along it

For `CCCCCCCCCCCCCCCCOCC(COCCCCCCCCCCCCCCCC)OCc1cn(CCO[C@@H]2O[C@H](CO)[C@@H](O[C@@H]3O[C@H](CO)[C@H](O)[C@H](O[C@]4(C(=O)O)C[C@H](O)[C@@H](NC(C)=O)[C@H]([C@H](O)[C@H](O)CO)O4)[C@H]3O)[C@H](O)[C@H]2O)nn1` [GM3-DAG], the “liposome binding, fluorescence signal (replicates)” value is 1899 and 2014 and 1894 and 1967 at WT Siglec-6 CHO cells (sheet Figure S22b, Sig-6); 5874 and 5544 and 5060 and 6703 at WT Siglec-6 CHO cells (sheet Figure S26a, 3% GM3-DAG liposomes, WT); 2153 and 2258 and 2285 and 2102 at WT Siglec-6 CHO cells (sheet Figure S28b, 3% GM3-DAG liposomes, WT); 1302 and 879 and 1034 and 1211 at WT Siglec-6 CHO cells (sheet Figure S26d, WT).
Regarding `CCCCCCCCCCCCCCCCOCC(COCCCCCCCCCCCCCCCC)OCc1cn(CCO[C@@H]2O[C@H](CO)[C@@H](O[C@@H]3O[C@H](CO)[C@H](O)[C@H](O[C@]4(C(=O)O)C[C@H](O)[C@@H](NC(C)=O)[C@H]([C@H](O)[C@H](O)CO)O4)[C@H]3O)[C@H](O)[C@H]2O)nn1` [nGL 5], the “Binding of nGL liposomes relative to liposomes formulated with 3 mol% nGL 5 (Fig. 3g)” value was 1.02 and 1.01 and 0.97 at R122A Siglec-6 CHO cells (R122A Siglec-6 CHO cells, 3 mol% nGL); 0.93 and 1.01 and 1.13 at WT Siglec-6 CHO cells (WT Siglec-6 CHO cells, 3 mol% nGL, replicates). Further, the “nGLL binding to WT Siglec-6 CHO cells (in words)” value on WT Siglec-6 CHO cells (3 mol% nGL in liposomes) is listed as “relatively high binding”. Also, the “Binding of nGL liposomes to WT Siglec-6 CHO cells relative to naked liposomes (Fig. 3e)” value on WT Siglec-6 CHO cells (3 mol% nGL, replicates) is 13.1 and 10.8 and 11.4 and 14. In addition, on WT Siglec-6 CHO cells (cell assay (liposomal display)), the “fold difference in binding to Siglec-6 between 5 and GM3” value was determined as 34 fold. Also, the “liposome binding, fluorescence signal (replicates)” value was 3983 and 3299 and 3469 and 4281 at WT Siglec-6 CHO cells (sheet Figure S17, cells not given, three experiments, each with its own Naked control); 2909 and 2902 and 3112 and 3410 at WT Siglec-6 CHO cells (sheet Figure S18a, cells not given). The “optimal content of 5 in liposomes for engaging Siglec-6” value at WT Siglec-6 CHO cells (titration in cell assay and bead assay) is on record as 5 mol%.
As for GD1a, the “log10(MFI AF647) of GLL relative to log10(MFI AF647) of the same GLL against UT CHO cells (Fig. 2a)” value at Siglec-10 WT CHO cells was 0.32 (2×) and 0.3 and 0.31; in assay [1] it was -0.02 and -0.07 and -0.06 and -0.05; on R122A Siglec-6 CHO cells, 0.5 and 0.47 and 0.41 and 0.51; on WT Siglec-6 CHO cells (replicates) it was 0.57 (2×) and 0.56 (2×).
Consider GD1b, for which the “log10(MFI AF647) of GLL relative to log10(MFI AF647) of the same GLL against UT CHO cells (Fig. 2a)” value on Siglec-10 WT CHO cells was 0.18 and 0.23 and 0.2 and 0.22; in assay [1] it was -0.12 and -0.14 (3×); on R122A Siglec-6 CHO cells, 0.2 and 0.17 (2×) and 0.16; on WT Siglec-6 CHO cells (replicates), 0.23 and 0.21 (2×) and 0.22.
On to GD3, for which the “log10(MFI AF647) of GLL relative to log10(MFI AF647) of the same GLL against UT CHO cells (Fig. 2a)” value is 0.33 (2×) and 0.31 (2×) at Siglec-10 WT CHO cells; 0.02 and -0.02 and 0 and -0.01 in assay [1]; 0.78 (2×) and 0.7 and 0.79 on R122A Siglec-6 CHO cells; 0.91 and 0.9 (2×) and 0.88 on WT Siglec-6 CHO cells (replicates). Besides, on Siglec-10 WT CHO cells (cell assay, optimized liposomal formulation), the “GLL binding to Siglec-10 (in words)” value is reported as “novel interactions were observed”.
